The target of series [1] is T1, SPRY domain-containing SOCS box protein 2 (Homo sapiens, UniProt Q99619).
T1 sequence (Q99619 whole entry): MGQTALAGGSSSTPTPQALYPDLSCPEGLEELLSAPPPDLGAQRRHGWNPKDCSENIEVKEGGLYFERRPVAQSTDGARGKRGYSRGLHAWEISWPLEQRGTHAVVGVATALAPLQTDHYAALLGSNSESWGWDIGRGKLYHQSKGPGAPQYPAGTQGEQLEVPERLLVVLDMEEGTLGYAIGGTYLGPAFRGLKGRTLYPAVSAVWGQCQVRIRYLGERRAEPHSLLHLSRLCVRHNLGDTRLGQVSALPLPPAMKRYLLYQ
Put plainly: Binding affinity to GST-tagged SPSB2 (unknown origin) expressed in Escherichia coli BL21 (DE3) by SPR assay. A general note: In SPR one partner is held on a chip, and binding of the other changes the refractive index at the surface.

Series [2] can be described thus: Stability of the compound assessed as trypsin (unknown origin)-mediated drug degradation at 200:1 peptide to enzyme ratio after 24 to 96 hrs by RP-HPLC analysis. It is filed as ADME. To be noted: human.
Series [3] addresses T2, SPRY domain-containing SOCS box protein 2 (Mus musculus) (UniProt O88838).
T2 sequence (whole entry): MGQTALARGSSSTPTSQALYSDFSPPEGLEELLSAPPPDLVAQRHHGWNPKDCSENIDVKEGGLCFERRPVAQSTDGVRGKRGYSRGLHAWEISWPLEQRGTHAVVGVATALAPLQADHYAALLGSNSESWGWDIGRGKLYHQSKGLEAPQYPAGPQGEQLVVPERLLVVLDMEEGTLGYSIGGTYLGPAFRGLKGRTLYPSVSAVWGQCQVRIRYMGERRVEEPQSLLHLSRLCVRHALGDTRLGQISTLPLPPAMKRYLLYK
Put plainly: Displacement of full-length of iNOS from SPSB2 in LPS/IFNgamma-stimulated mouse BMDM cell lysate at 10 uM after 2 hrs by Western blotting analysis. It is filed as cell-free.

A short description of series [4]: Stability of the compound in 1:1 ratio of DTT:H2O2 at 0.5 mg/ml after 1 hr by redox stability/RP-HPLC assay. It is filed as physicochemical. The note with it: 1:1 DTT:H2O2; read-out: Stability.
The nature of series [5]: Stability of the compound assessed as pepsin (unknown origin)-mediated drug degradation at 200:1 peptide to enzyme ratio after 24 to 96 hrs by RP-HPLC analysis. The note with it: human. It is filed as ADME.
Series [6] can be described thus: Stability of the compound assessed as alpha-chymitrypsin (unknown origin)-mediated drug degradation at 200:1 peptide to enzyme ratio after 24 to 96 hrs by RP-HPLC analysis. The note with it: human. It is filed as ADME.
Series [7] is described as follows: Stability of the compound in 1 mM DTT at 0.5 mg/ml after 15 mins by redox stability/RP-HPLC assay. To be noted: 0.25 h. Format: physicochemical.
The nature of series [8]: Stability of the compound in 1:10 ratio of DTT:H2O2 at 0.5 mg/ml after 1 hr by redox stability/RP-HPLC assay. Format: physicochemical.
Series [9] can be described thus: Stability in human plasma assessed as compound remaining at 50 uM after 24 hrs by RP-HPLC analysis. Format: ADME, cell-free. The note with it: read-out: Stability.

Calls of active or inactive are those of the source. No cut-off for these calls is given here. Where a SMILES comes first, the peptide text is derived from it. Bridges are numbered along the chain shown (N, C = ends).

The Kd is the concentration at which binding is half-saturated. Higher therefore signals weaker binding.

With Ac-DINNN-NH2, the Kd in [1] was 318 nM.

In turn, `CC[C@H](C)[C@@H]1NC(=O)[C@H](CC(=O)O)NC(=O)[C@H](C(C)C)NC(=O)[C@@H](NC(C)=O)CSSC[C@@H](C(N)=O)NC(=O)[C@H](CC(N)=O)NC(=O)[C@H](CC(N)=O)NC(=O)[C@H](CC(N)=O)NC1=O` (Ac-CVDINNNC-NH2; disulfide 1-8) gave a Kd in series [1] of 4.4 nM.

For `CC[C@H](C)[C@H](NC(=O)[C@H](CC(=O)O)NC(=O)[C@@H](NC(=O)[C@H](CS)NC(C)=O)C(C)C)C(=O)N[C@@H](CC(N)=O)C(=O)N[C@@H](CC(N)=O)C(=O)N[C@@H](CC(N)=O)C(=O)N[C@@H](CS)C(N)=O` (Ac-CVDINNNC-NH2), the Stability entry was “Stable” in series [2]; “Stable” in series [5]; “Stable” in series [6]; “Unstable” in series [7]; “Stable” in [8]. The inhibition entry in series [3] was “Active”. Moreover, in series [4], the remaining at 1 h, 0.5 mg/ml was determined as 55%. In series [1], this molecule returned a Kd of 35.1 nM.

As for Ac-KEEKDINNNVKKT-NH2, the Stability result in [5] is recorded as “Unstable”. The remaining at 24 h, 50 µM in series [9] stood at 83%.

The values are drawn from ChEMBL document CHEMBL3351643, “A potent cyclic peptide targeting SPSB2 protein as a potential anti-infective agent” (J Med Chem, 2014).
